{
  "source": "patent US6512102B1",
  "about": "“Compositions and methods of diagnosis and treatment using casein kinase I” (Chiron Corporation, priority 1998, dated 2003)",
  "system": "Lef-1 dependent transcription",
  "test": "Lef-1 enhancer luciferase reporter assay in Cos cells",
  "format": "cell-based",
  "conditions": "GSK3 over-expressed / cotransfected",
  "procedure": "Combinations of Wnt-1, CKIε, CKI kinase dead variant (lys→arg 38) and Lef-1 were transfected into Cos cells with a luciferase gene driven by multiple copies of Lef enhancer elements. As an internal control of transfection efficiency, the β-galactosidase gene driven by the SV40 promoter was co-transfected in all samples. 24 hours after transfection, cells were lysed and the lysate was tested for luciferase activity. The luciferase activity was normalized with respect to β-galactosidase activity. […] Dorsoanterior index (DAI) grade numbers were assigned to the phenotypes of the embryos. A grade 5 embryo is normal; a grade 3 embryo is cyclopic (one eye); a grade 1 embryo has a tail fin and somites but no head (acephalic); and a grade 0 embryo has no dorsoanterior structures (Kao et al., 1988).\nThe effect of CKI on Lef-1 dependent transcription in Cos mammalian cells was examined. A luciferase reporter gene driven by multiple copies of the Lef-I enhancer sequence was used. When only Wnt-I or lef-I or CKIε was transfected with the reporter construct, luciferase activity was induced only 2 to 3 fold (FIG. 1A). When Lef-1 was cotransfected with either Wnt-1 or CKIε, luciferase activity was induced 30 or 12 fold respectively.\nLuciferase reporter plasmid contains multiple Lef-I enhancer sites upstream of the fos basal promoter. […]",
  "data": [
    {"substance": "GSK3: GSK3 over-expressed from cotransfected plasmid [reference compound]", "values": [
      {"measurement": "luciferase activity transduced by CKIε", "value": "inhibited the effect of CKI in promoting transcription"}
    ]}
  ]
}
